The values below come from publication PMC5733478, “A Non-imaging High Throughput Approach to Chemical Library Screening at the Unmodified Adenosine-A3 Receptor in Living Cells” (Frontiers in Pharmacology, 2017).

Where a name gives a salt, the structure may show the parent alone.

The target of one assay is T1, human A3AR (Homo sapiens, UniProt P0DMS8).
T1 construct: expressed in transfected cells
T1 sequence (P0DMS8 1-318): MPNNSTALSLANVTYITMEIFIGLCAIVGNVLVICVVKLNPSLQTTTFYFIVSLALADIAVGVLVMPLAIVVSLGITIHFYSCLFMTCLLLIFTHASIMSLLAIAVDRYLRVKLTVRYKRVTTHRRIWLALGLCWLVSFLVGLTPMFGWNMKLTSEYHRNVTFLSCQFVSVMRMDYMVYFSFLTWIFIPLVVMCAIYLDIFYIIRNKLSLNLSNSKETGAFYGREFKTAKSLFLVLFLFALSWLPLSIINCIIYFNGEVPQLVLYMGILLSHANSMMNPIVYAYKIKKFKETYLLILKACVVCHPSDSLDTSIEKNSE
The assay can be described thus: LOPAC library primary screen: single concentration (10 μM) inhibition of 25 nM CA200645 binding, PHERAstar FS.
Conditions: not given
Take `Cc1ncsc1CCCl.Cl` [Chlormethiazole hydrochloride]: the “% 25 nM CA200645 binding” value was 84.7 ± 21.7%.

On to `CN1C(=O)CCS(=O)(=O)C1c1ccc(Cl)cc1` (stereo not shown) [Chlormezanone], for which the “% 25 nM CA200645 binding” value was 101.4 ± 10.9%.

For `NS(=O)(=O)c1cc2c(cc1Cl)N=CNS2(=O)=O` [Chlorothiazide], the “% 25 nM CA200645 binding” value amounted to 107.7 ± 8.4%.

On to `CN(C)CCCN1c2ccccc2Sc2ccc(Cl)cc21` [Chlorpromazine hydrochloride], for which the “% 25 nM CA200645 binding” value is listed as 92.2 ± 10.3%.

`CCCNC(=O)NS(=O)(=O)c1ccc(Cl)cc1` [Chlorpropamide]: the “% 25 nM CA200645 binding” value is recorded as 97.6 ± 7.8%.

In the case of `CN(C)CC/C=C1/c2ccccc2Sc2ccc(Cl)cc21` [Chlorprothixene hydrochloride], the “% 25 nM CA200645 binding” value is listed as 96.6 ± 7.7%.

Consider `C[N+](C)(C)CCO.[Br-]` [Choline bromide], for which the “% 25 nM CA200645 binding” value was 100.0 ± 6.6%.

For `O=C(O)CCC(=O)O.c1ccc(C2(c3ccccc3)CC2C2=NCCN2)cc1` (stereo not shown) [Cibenzoline succinate], the “% 25 nM CA200645 binding” value amounted to 95.2 ± 7.2%.

For the compound `COCCOC(=O)C1=C(C)NC(C)=C(C(=O)OC/C=C/c2ccccc2)C1c1cccc([N+](=O)[O-])c1` (stereo not shown) [Cilnidipine], the “% 25 nM CA200645 binding” value was determined as 67.0 ± 19.0%.

Turning to `O=C1CCc2cc(OCCCCc3nnnn3C3CCCCC3)ccc2N1` [Cilostazol], the “% 25 nM CA200645 binding” value was 105.8 ± 41.7%.

Regarding `CN/C(=N/CCSCc1nc[nH]c1C)NC#N` [Cimetidine], the “% 25 nM CA200645 binding” value was 94.0 ± 4.0%.

With `CCn1nc(C(=O)O)c(=O)c2cc3c(cc21)OCO3` [Cinoxacin], the “% 25 nM CA200645 binding” value is on record as 96.9 ± 2.7%.

For the compound `CC(C)(Oc1ccc(C2CC2(Cl)Cl)cc1)C(=O)O` (stereo not shown) [Ciprofibrate], the “% 25 nM CA200645 binding” value was 98.7 ± 5.2%.

On to `Cl.O=C(c1ccc(OCCCc2cnc[nH]2)cc1)C1CC1` [Ciproxifan hydrochloride], for which the “% 25 nM CA200645 binding” value stood at 102.4 ± 6.2%.

For `N.N.[Cl][Pt][Cl]` [Cisplatin], the “% 25 nM CA200645 binding” value was 69.0 ± 8.2%.

As for `CN(C)CCCC1(c2ccc(F)cc2)OCc2cc(C#N)ccc21` (stereo not shown) [Citalopram hydrobromide], the “% 25 nM CA200645 binding” value came to 97.2 ± 4.4%.

For `Cl.Clc1ccc(Cn2c(CN3CCCC3)nc3ccccc32)cc1` [Clemizole hydrochloride], the “% 25 nM CA200645 binding” value was 99.7 ± 8.2%.

Turning to `O=P(O)(O)C(Cl)(Cl)P(=O)(O)O` [Clodronic acid], the “% 25 nM CA200645 binding” value is recorded as 98.4 ± 3.5%.

Turning to `CN(C)CCCN1c2ccccc2CCc2ccc(Cl)cc21` [Clomipramine hydrochloride], the “% 25 nM CA200645 binding” value worked out at 99.4 ± 3.8%.

Turning to `Clc1cccc(Cl)c1N=C1NCCN1` [Clonidine hydrochloride], the “% 25 nM CA200645 binding” value was 101.9 ± 9.8%.

`Clc1ccccc1C(c1ccccc1)(c1ccccc1)n1ccnc1` [Clotrimazole]: the “% 25 nM CA200645 binding” value was 74.0 ± 15.0%.

Regarding `C[C@]12C[C@H](O)[C@H]3[C@@H](CCC4=CC(=O)CC[C@@]43C)[C@@H]1CC[C@@H]2C(=O)CO` [Corticosterone], the “% 25 nM CA200645 binding” value came out at 99.8 ± 5.3%.

With `CC(=O)OCC(=O)[C@@]1(O)CC[C@H]2[C@@H]3CCC4=CC(=O)CC[C@]4(C)[C@H]3C(=O)C[C@@]21C` [Cortisone 21-acetate], the “% 25 nM CA200645 binding” value amounted to 92.1 ± 5.7%.

In the case of `C[C@]12CCC(=O)C=C1CC[C@@H]1[C@@H]2C(=O)C[C@@]2(C)[C@H]1CC[C@]2(O)C(=O)CO` [Cortisone], the “% 25 nM CA200645 binding” value was 94.0 ± 5.3%.

As for `Cc1cc(NC2CCCCC2)nc(-n2nc(C)cc2C)n1` [CyPPA], the “% 25 nM CA200645 binding” value stood at 68.8 ± 15.9%.

Turning to `CN(C)CCC=C1c2ccccc2C=Cc2ccccc21` [Cyclobenzaprine hydrochloride], the “% 25 nM CA200645 binding” value worked out at 85.3 ± 24.5%.

In the case of `O=P1(N(CCCl)CCCl)NCCCO1` (stereo not shown) [Cyclophosphamide monohydrate], the “% 25 nM CA200645 binding” value is given as 79.2 ± 18.9%.

On to `NS(=O)(=O)c1cc2c(cc1Cl)NC(C1CC3C=CC1C3)NS2(=O)=O` (stereo not shown) [Cyclothiazide], for which the “% 25 nM CA200645 binding” value turned out to be 93.2 ± 4.7%.

As to `CN1CCC(=C2c3ccccc3C=Cc3ccccc32)CC1` [Cyproheptadine hydrochloride], the “% 25 nM CA200645 binding” value is 96.0 ± 5.5%.

As to `CC(=O)O[C@]1(C(C)=O)CC[C@H]2[C@@H]3C=C(Cl)C4=CC(=O)[C@@H]5C[C@@H]5[C@]4(C)[C@H]3CC[C@@]21C` [Cyproterone acetate], the “% 25 nM CA200645 binding” value is reported as 95.6 ± 2.1%.

On to `Cl.NCCS` [Cysteamine hydrochloride], for which the “% 25 nM CA200645 binding” value came out at 89.3 ± 6.0%.

For `S=C([S-])OC1CC2CC1C1CCCC21.[K+]` [D-609 potassium], the “% 25 nM CA200645 binding” value turned out to be 95.5 ± 4.1%.

As for `N[C@H](CO)C(=O)O` [D-Serine], the “% 25 nM CA200645 binding” value was 100.2 ± 11.0%.

Turning to `OC[C@H]1OC(n2cnc3ccccc32)[C@H](O)[C@@H]1O` (stereo partly drawn) [D-ribofuranosylbenzimidazole], the “% 25 nM CA200645 binding” value was 98.4 ± 15.0%.

With `O=C1NC(=O)c2cc(Nc3ccccc3)c(Nc3ccccc3)cc21` [DAPH], the “% 25 nM CA200645 binding” value came to 31.8 ± 9.9%.

Turning to `Clc1ccc(N2C[C@H]3CC[C@@H](C2)N3)nn1` [DBO-83], the “% 25 nM CA200645 binding” value is given as 97.7 ± 11.0%.

With `CCn1c(=O)[nH]c2cc(Cl)c(Cl)cc21` [DCEBIO], the “% 25 nM CA200645 binding” value is 87.8 ± 8.9%.

Take `Fc1cccc(/C=N/N=C/c2cccc(F)c2)c1` [DFB]: the “% 25 nM CA200645 binding” value worked out at 94.8 ± 1.4%.

For `CCC(=O)N1CCN(C(=O)c2ccccc2)CC1` [DM 235], the “% 25 nM CA200645 binding” value was 105.1 ± 10.7%.

For `O=[N+]([O-])c1cc2nc(O)c(O)nc2cc1[N+](=O)[O-]` [DNQX], the “% 25 nM CA200645 binding” value was found to be 85.0 ± 6.8%.

`CC(C)[C@@H]1CC[C@@H](C)C[C@@H]1P(=O)(c1ccccc1)c1ccccc1` [DPO-1]: the “% 25 nM CA200645 binding” value came to 89.1 ± 3.8%.

`O=c1c(-c2ccc(O)cc2)coc2cc(O)ccc12` [Daidzein]: the “% 25 nM CA200645 binding” value came to 88.9 ± 6.0%.

For `C#C[C@]1(O)CC[C@H]2[C@@H]3CCC4=Cc5oncc5C[C@]4(C)[C@H]3CC[C@@]21C` [Danazol], the “% 25 nM CA200645 binding” value is 86.4 ± 9.1%.

Regarding `O=C1CN(/N=C/c2ccc(-c3ccc([N+](=O)[O-])cc3)o2)C(O)=N1` [Dantrolene sodium], the “% 25 nM CA200645 binding” value is 94.8 ± 9.5%.

Take `O=c1ccc2ccc(O)c(O)c2o1` [Daphnetin]: the “% 25 nM CA200645 binding” value was 102.0 ± 13.1%.

For `N=C(N)N1CCc2ccccc2C1` [Debrisoquin sulfate], the “% 25 nM CA200645 binding” value is on record as 81.0 ± 16.3%.

`C[N+](C)(C)CCCCCCCCCC[N+](C)(C)C.[Br-].[Br-]` [Decamethonium dibromide]: the “% 25 nM CA200645 binding” value is given as 106.4 ± 21.3%.

Regarding `CN(C)[C@@H]1C(O)=C(C(N)=O)C(=O)[C@@]2(O)C(O)=C3C(=O)c4c(O)ccc(Cl)c4[C@@H](O)[C@H]3C[C@@H]12` [Demeclocycline hydrochloride], the “% 25 nM CA200645 binding” value is given as 98.1 ± 10.5%.

Take `CN(N=O)c1cc(O)ccc1O` [Dephostatin]: the “% 25 nM CA200645 binding” value was found to be 75.4 ± 19.6%.

In the case of `Cc1cc(N)c2ccccc2[n+]1CCCCCCCCCC[n+]1c(C)cc(N)c2ccccc21.[Cl-].[Cl-]` [Dequalinium chloride hydrate], the “% 25 nM CA200645 binding” value is reported as 86.1 ± 10.0%.

In the case of `O=c1c2ccccc2[nH]c(=S)n1CCN1CCC(=C(c2ccc(F)cc2)c2ccc(F)cc2)CC1` [Diacylglycerol Kinase Inhibitor II], the “% 25 nM CA200645 binding” value is on record as 51.5 ± 9.4%.

As for `CC1=NS(=O)(=O)c2cc(Cl)ccc2N1` [Diazoxide], the “% 25 nM CA200645 binding” value was found to be 101.5 ± 12.2%.

Consider `O=C(O)Cc1ccccc1Nc1c(Cl)cccc1Cl` [Diclofenac sodium], for which the “% 25 nM CA200645 binding” value amounted to 100.0 ± 12.4%.

Regarding `O=C(O)CN(CCN(CC(=O)O)CC(=O)O)CCN(CC(=O)O)CC(=O)O` [Diethylenetriaminepentaacetic acid], the “% 25 nM CA200645 binding” value was 99.2 ± 10.9%.

Turning to `Br.CO[C@H]1CC=C2CCN3CCC4=C(CC(=O)OC4)[C@]23C1` [Dihydro-beta-erythroidine hydrobromide], the “% 25 nM CA200645 binding” value is on record as 94.0 ± 5.4%.

With `COc1cc(CNC(=O)CCCCCCC(C)C)ccc1O` [Dihydrocapsaicin], the “% 25 nM CA200645 binding” value came to 86.7 ± 9.6%.

Still in this assay, the particulars now being: 10 μM compound, 25 nM CA200645, A3AR CHO cells.
Take `C#CCn1c(=O)c2c(ncn2C)n(C)c1=O` [DMPX, reference compound]: the “hit in LOPAC primary screen (inhibited the binding of CA200645 by >40%)” value was “identified”.

Still in this assay, the particulars now being: % of control wells (1% DMSO and 25 nM CA200645); compounds at 10 µM; […]; mean ± SD, three experiments in duplicate.
With `CCOC(=O)C(C)(C)Oc1ccc(Cl)cc1` [Clofibrate], the “% 25 nM CA200645 binding” value is recorded as 81.3 ± 24.9%.

The assay is the same for the next values; noted with them: % of control wells (1% DMSO and 25 nM CA200645); compounds at 10 µM; whole live cells expressing A3AR; mean ± SD, three experiments in duplicate.
Consider `NCCSSCCN` [Cystamine dihydrochloride], for which the “% 25 nM CA200645 binding” value turned out to be 96.6 ± 12.8%.

Still in this assay, the particulars now being: % of control wells (1% DMSO and 25 nM CA200645); compounds at 10 µM; whole live cells expressing the A3AR; mean ± SD, three experiments in duplicate.
In the case of `CN(C(=O)CCCOc1ccc2[nH]c(=O)ccc2c1)C1CCCCC1` [Cilostamide], the “% 25 nM CA200645 binding” value is on record as 75.9 ± 3.4%.

The assay is the same for the next values; noted with them: compounds tested at 10 µM; % of control wells (1% DMSO and 25 nM CA200645); whole live cells expressing the A3AR; mean ± SD, three experiments in duplicate.
On to `c1ccc(C2CC2)c(OCC2=NCCN2)c1` [Cirazoline hydrochloride], for which the “% 25 nM CA200645 binding” value is given as 105.5 ± 7.7%.

Take `C#CCN(C)CCCOc1ccc(Cl)cc1Cl` [Clorgyline hydrochloride]: the “% 25 nM CA200645 binding” value amounted to 96.0 ± 4.2%.

Consider `C[C@]12CCC(=O)C=C1CC[C@@H]1[C@@H]2CC[C@@]2(C)[C@H]1CC[C@]2(O)C(=O)CO` [Cortexolone], for which the “% 25 nM CA200645 binding” value worked out at 110.6 ± 19.2%.

With `N[C@H](CCCP(=O)(O)O)C(=O)O` [D(-)-2-Amino-5-phosphonopentanoic acid], the “% 25 nM CA200645 binding” value turned out to be 109.4 ± 11.9%.
